# In patent US6599878B2, “Superoxygenating blood substitutes based on hemoglobin and dihydropyidine compositions” (priority 1992, dated 2003):
# Several values for one entry are separate records, joined by “and”; a condition that tells them apart may be missing. Equal entries are not always repeated. Marks after values point to notes of the source that are not given here.
# Tests used:
# [1] = Blood gases, electrolytes, hemoglobin, colloid osmotic pressure and blood volume (Example I); format: in vivo, mongrel dogs; details: for Plasma Hb: anesthetized dogs
# Protocol: (§2) Blood pH, PCO2, PO2 and Na^+, K^+ and Ca^++ concentrations were measured with a Nova Stat Profile 1 analyzer (Waltham, Mass.). Plasma colloid osmotic pressure (COP) was determined before and after hemodilution with a Wescor 4400 Colloid Osmometer (Logan, Utah). […] Hematocrit was determined volumetrically. Hemoglobin (gm %), methemoglobin (%) and percent oxygen saturation were measured with an Instrumentation Laboratories 482 CO-Oximeter (Lexington, Mass.). Hemoglobin oxygen content was measured with the co-oximeter and added to the dissolved oxygen (0.003×PO2) to give total blood oxygen content (vol %).
# Total blood volume was computed from plasma volume (indicator dilution of iodinated I^125-albumin, Mallinckrodt Medical, Inc., St. Louis, Mo.) and whole body hematocrit.
# Following cannulation all animals were hydrated with 5 mg % albumin to increase filling pressure (LVEDP) above 5 mm Hg and to bring hematocrit to near 40 vol %. Twelve dogs underwent isovolemic exchange of blood for 10 gm % hemoglobin to hematocrit 50% of baseline.
# (§3) Once MAP stabilized (≈5-10 min), hemodynamic measurements, blood gases and other samples were obtained.
# [2] = Properties of the hemoglobin product and colloid solutions; format: physicochemical
# Protocol: as §2
# [3] = Regional blood flows by radioactive microspheres (Example I); format: in vivo, mongrel dogs; details: dogs, hematocrit 50% of control
# Protocol: Briefly, prior to injection, microspheres labeled with Sc^46, Sr^85, Sn^113 or Ce^141 were vortexed and sonicated. Approximately 30 microcuries (1×10^6 microspheres) were injected into the left atrium of a dog. Beginning with each microsphere injection, duplicate reference blood samples were collected at a constant rate (6 ml min^−1) for 3 minutes from the femoral PE 90 catheters. Radioactivity of the duplicate samples differed by less than 10%, indicating adequate mixing of the microspheres in the left ventricular output. To maintain isovolemic conditions during reference sampling, a 5% albumin solution was infused simultaneously.
# After the final injection of microspheres, the heart was stopped by intravenous injection of potassium chloride. Skin and bone (rib) were sampled from a shaved area distal to the thoracotomy. Skeletal muscle samples were taken from the hindlimb, back, forelimb and head. The GI tract was excised from the esophageal sphincter to the anus. All mesentery and omentum were trimmed. The stomach was separated from the tract. These and all other organs were weighed. Multiple samples were taken from each organ and transferred to a tared counting tube.
# The tissue and reference samples were weighed and analyzed for radioactivity with a gamma scintillation counter equipped with a multichannel analyzer (Packard Instrument, Downers Grove, Ill.). Isotope separation was accomplished by standard techniques of gamma spectroscopy. Values for organ blood flows (BForgan) in ml min^−1 were calculated from the equation BForgan=ABF×(MC÷AC)×organ weight (g), where ABF is the rate of arterial reference sampling (ml/minute), MC is the microsphere radioactivity (counts min^−1 g^−1) in the tissue samples, and AC is the total microsphere radioactivity (counts/minute) in the arterial reference samples. The fractional distribution of cardiac output to each organ was computed from BForgan÷ΣBForgan, where ΣBForgan is the sum of all organ flows. Skeletal muscle, skin and bone weights were calculated as 40%, 9% and 8% of body weight, respectively.
# cyclic GMP [4] = experiment: BAEE during oxyHb-HD pilot study; format: in vivo, dog; details: for cGMP: plasma
# Text: (§1) In another pilot study, we examined if infusion of a nitric oxide substrate (N-benzoyl-L-arginine ethyl ester, i.e. BAEE) would override the hypothesized NO scavenging by oxyHb and thereby mimic Ab-HD hemodynamics and cGMP production shown in Tables 8-11. While BAEE administration increased plasma cGMP levels and caused significant vasodilation as evidenced by the decreased mean arterial pressure, cardiac output was not increased (Table 12).
# [5] = BAEE during oxyHb-HD pilot study; format: in vivo, dog; details: n = 3
# Text: as §1
# cyclic GMP [6] = experiment: Plasma cyclic GMP and arterial pressure before and after hemodilution and SNP (Example II); format: in vivo, dog; details: hemodilution alone, n = 5, mean ± sem
# [7] = Systemic hemodynamics in anesthetized hemodiluted dogs (Example I); format: in vivo, mongrel dogs
# Protocol: Twenty-four conditioned, heartworm-free male mongrel dogs (20 to 30 kg) were anesthetized with sodium pentobarbital (30 mg/kg i.v.) followed by an i.v. maintenance dose of 4 mg/kg/hour. After intubation of the trachea with a cuffed endotracheal tube, the dog was mechanically ventilated (Siemens 900D Servoventilator) with 100% oxygen, tidal volumes of 10 to 12 ml/kg and respiration at a rate to achieve normocarbia. […] Sodium bicarbonate was not administered. The body temperature of the dog was maintained at 39 C. with water-circulated heating pads.
# The dog was placed supine and a polyethylene catheter (PE 200) was inserted into the thoracic aorta via the left femoral artery for measurement of blood pressure. Two small-bore (PE 90) heparin-filled catheters of different lengths were placed in the abdominal aorta via the right femoral artery to collect reference blood samples containing radioactive microspheres for measurement of regional blood flow. Wide-bore (PE 240) catheters were placed in the right femoral vein and in the right carotid artery, for isovolemic exchange transfusion and for the administration of intravenous fluids and collection of arterial blood samples. A 5 french thermodilution catheter was advanced into the pulmonary artery via the right external jugular vein for measurement of cardiac output and right atrial pressure. A Foley catheter was inserted into the bladder for urine collection.
# Under fluoroscopy, a 5 french volume-conductance catheter (Mansfield Webster) was inserted via the left carotid artery across the aortic valve to the apex of the left ventricle to measure instantaneous volume.
# The animal was then placed on its right side and paralyzed with doxacurium (0.05 mg/kg) to perform a left thoracotomy in the fourth intercostal space. The exposed lung was retracted with gauze. Five cm H2O positive end-expiratory pressure was instituted to prevent atelectasis. A small incision was made in the pericardium near the left atrial appendage. The appendage was protracted and a PE 90 catheter, for microsphere injection, inserted into the ventricle via pressure verification and then pulled back into the atrium. A 3 french micromanometer-tipped pressure catheter (Millar) was then inserted via the appendage into the left ventricle for pressure recording. Both catheters were secured with a ligature around the appendage and distally taped to the animal. The exposed thoracic surface was covered with plastic film to prevent evaporation.
# Continuous measurements of heart rate (HR), pulsatile aortic pressure, mean aortic pressure (MAP), left ventricular peak pressure (LVPP), rate-of-change of LVPP (dP/dt), LV end diastolic pressure (LVEDP), LV volume, and right atrial pressure (RAP) were recorded on an analog thermal array recorder (Gould Model TA4000) and stored on a computerized data acquisition system (Halcom, Inc.) Cardiac output (CO) was measured in triplicate using a Spectramed Hemoprol computer. Systemic vascular resistance (SVR) was calculated from (MAP−RAP)÷CO. Systemic vascular hindrance (SVH) was calculated from SVR÷η, where η is the apparent viscosity of blood in centipoise (cp). At high flow rates (shear rates≈200 s^−1) assumed in the aorta, η is 4.0 cp for hematocrit (Hct) of 40 vol % and 2.1 cp for Hct of 20 vol %. Stroke volume was derived from CO÷HR. LV stroke work (LVSW) was calculated from (systolic AoP−LVEDP)×SV×0.0136.
# [8] = Whole body oxygenation (Example I); format: in vivo, mongrel dogs; details: for CaO2: arterial oxygen content
# Protocol: as §2
# Whole body oxygen extraction ratio (O2 extr, %) was calculated from arteria-mixed venous oxygen content difference C(a−v)O2 divided by the arterial oxygen content (CaO2). Whole body oxygen consumption (WBVO2) in ml/minute was determined using the Fick equation, WBVO2=CO×C(a−v)O2 Oxygen delivery (DO2) in ml/minute was calculated from CaO2×CO.
# Upon arrival in the laboratory, typically all dogs had hematocrits of 45 vol % or greater and filling pressures (LVEDP) of 5 mm Hg or less. Following cannulation all animals were hydrated with 5 mg % albumin to increase filling pressure (LVEDP) above 5 mm Hg and to bring hematocrit to near 40 vol %. Twelve dogs underwent isovolemic exchange of blood for 10 gm % hemoglobin to hematocrit 50% of baseline. […] The colloid pressure of 10 gm % hemoglobin and 8 gm % albumin (both about 40 Torr) is about twice that of dog plasma and after in vivo dilution would be expected to sustain plasma volumes at baseline values or greater.
# as §3
# cyclic GMP [9] = experiment: Regional interstitial cGMP by microdialysis; format: in vivo, dog; details: during hemodilution alone, n = 4
# Text: An in vivo method that is based on direct microdialysis of the organ tissue was used to examine the regional interstitial production of cGMP. The microdialysis technique uses a small dialysis fiber (250 μm diameter) that is inserted into the tissue and perfused to sample extracellular metabolites.
# [10] = In vivo test of hemoglobin product for common adverse effects during hemodilution; details: anesthetized dog, hemodilution to hematocrit 50% of baseline
# Protocol: The hemoglobin product was also tested in vivo on dogs for common adverse effects of therapeutic products which are administered intravascularly. The hemodilution protocol used and the physiologic tests performed are standard in the art and were similar to that described in Rabiner et al., J. Exp. Med., 86, 455-463 (1967); Sunder-Plassmann et al., supra; and Crystal et al., Anesth. Analg., 67, 211-218 (1988) Briefly, the hemoglobin product was infused into a venous access of an anesthetized dog with simultaneous withdrawal of arterial blood on a one-to-one basis at about 25 ml/minute until hematocrit was 50% of baseline (about 20 vol %). Tests for pyrogenic effects, hypotensive effects, arrhythmia, inotropic effects, bradycardia, tachycardia, hypovolemia, dysoria, and coagulopathy were all negative.
# [11] = BAEE reversal of L-NAME effects in Ab-HD dogs; format: in vivo; details: BAEE after L-NAME in AB-HD dogs
# Text: With BAEE, the original hemodynamics of Ab-HD alone were expected to be evident, i.e. increased cardiac output.
# nitric oxide synthase = experiment: L-NAME during Ab-HD pilot study; details: dog, in vivo
# Protocol: Approximately 6 mg/kg L-NAME was administered i.v. bolus during Ab-HD.
# [12] = anesthetized dogs, hemodilution to hematocrit 50% of baseline
# [13] = BAEE 400 μg/kg/min during oxyHb-HD, n = 3
compound,measurement,setting,value
HbHD: Purified canine hemoglobin (10 gm %) used for isovolemic hemodilution,Plasma Hb,[1],4.6 g/100 ml
same,Plasma Hb,[1]; listed as hemoglobin,4.6 g/100 ml
same,plasma hemoglobin as share of total whole blood hemoglobin concentration,"[1]; dog, in vivo",approximately 40%
same,"hemoglobin excreted in urine, share of the approximately 100 grams infused",[1]; hemoglobinuria,less than 1%
same,% carboxyhemoglobin,[2],<0.5%
same,% methemoglobin,[2],<1%
same,Ca^+,[2],1.2 mmol/L
same,Colloid osmotic pressure,[2],40 mm Hg
same,Davenport diagram,[2],Normal
same,Haldane effect,[2],Normal
same,Hill plot,[2],Normal
same,K,[2],3.4 mmol/L
same,Na,[2],150 mmol/L
same,Osmolality,[2],310 mOsmol/kg
same,Oxygen capacity,[2],13.5 vol %
same,Oxygen content,[2],13.5 vol %
same,PCO2,[2],15 mm Hg
same,PO2,[2],200 mm Hg
same,Total Hb concentration,[2],10 gm %
same,Viscosity,[2],≈2.0 cp
same,pH,[2],6.9
same,COP of colloid solution,"[2]; 8% albumin, 10% hemoglobin, Wescor 4400 Colloid Osmometer",40.8±1.0 mm Hg
same,Bohr coefficient,[2]; pH 7.2-7.4,0.54 (pH 7.2-7.4)
same,P50,[2]; pH 7.4,24 mm Hg (pH 7.4)
same,Cyanide,"blood, n = 6",0.13 ± 0.03 mg/L
same,Lactate,"dog, in vivo",2.2 ± 0.3 meq/L
same,"Organ blood flow, change from control: Bone",[3],No
same,"Organ blood flow, change from control: Brain",[3],Yes (+40%)
same,"Organ blood flow, change from control: Gastrointestinal",[3],No
same,"Organ blood flow, change from control: Liver",[3],No
same,"Organ blood flow, change from control: Lung",[3],Yes (−53%)
same,"Organ blood flow, change from control: Myocardium",[3],Yes (+80%)
same,"Organ blood flow, change from control: Pancreas",[3],No
same,"Organ blood flow, change from control: Renal",[3],No
same,"Organ blood flow, change from control: Skeletal muscle",[3],No
same,"Organ blood flow, change from control: Skin",[3],No
same,"Organ blood flow, change from control: Spleen",[3],Yes (−39%)
same,"Organ blood flow, change from control: Total (= Cardiac output)",[3],No
same,MAP,"cyclic GMP [4]; oxyHb-HD alone, n = 3",146 ± 5 mm Hg
same,cGMP,"cyclic GMP [4]; oxyHb-HD alone, n = 3, mean ± sem",17.80 ± 0.95 µg/mL
same,CO,[5]; oxyHb-HD alone,2880 ± 245 mL/min
same,MAP,cyclic GMP [6],142 ± 6 mm Hg
same,Plasma cGMP,cyclic GMP [6]; listed as oxyHb-HD,17.22 ± 1.02*+ μg/ml and 17.22 ± 1.02 μg/ml
same,LV Elastance,[7]; [12],4.91 mm Hg ml
same,LV dP/dtmax,[7]; [12],1713 mm Hg/sec
same,LVPP,[7]; [12],154 mm Hg
same,LVSW,[7]; [12],29.2 g m/beat
same,MAP,[7]; [12],136 mm Hg
same,heart rate,[7]; [12],153 beats/min
same,"mean aortic, right atrial and LV end-diastolic (systemic) pressures vs control","[7]; dog, in vivo",not changed
same,systemic vascular resistance vs control,"[7]; dog, in vivo",not changed
same,effect on cardiac output and stroke volume,[7]; vs control,did not change
same,increase in systemic vascular hindrance,[7]; vs control,~100%
same,C(a-v)O2,[8]; anesthetized dogs,6.1 ml/100 ml
same,CvO2,[8]; anesthetized dogs,8.8 ml/100 ml
same,CaO2,[8]; anesthetized dogs,14.9 ml/100 ml
same,CaO2,"[8]; anesthetized dogs, listed as hemoglobin",14.9±0.4 ml/100 ml
same,DO2,[8]; oxygen delivery = CaO2 x CO,302 mL/min
same,decrease in oxygen delivery,[8]; vs control,30%
same,reduction in arterial oxygen content,[8]; vs control,24%
same,WBVO2,[8]; whole body oxygen consumption,125 mL/min
same,O2 extr,[8]; whole body oxygen extraction ratio,45%
same,"Cyclic GMP levels in regional interstitial microdialysate, MU",cyclic GMP [9]; MU,17.98* μg/ml
same,"Cyclic GMP levels in regional interstitial microdialysate, BO",cyclic GMP [9]; bone,18.64* μg/ml
same,"Cyclic GMP levels in regional interstitial microdialysate, BR",cyclic GMP [9]; brain,19.94* μg/ml
same,"Cyclic GMP levels in regional interstitial microdialysate, GI",cyclic GMP [9]; gastrointestinal tract,12.68* μg/ml
same,"Cyclic GMP levels in regional interstitial microdialysate, HE",cyclic GMP [9]; heart,14.44* μg/ml
same,"Cyclic GMP levels in regional interstitial microdialysate, LI",cyclic GMP [9]; liver,20.34* μg/ml
same,"Cyclic GMP levels in regional interstitial microdialysate, LU",cyclic GMP [9]; lung,18.74* μg/ml
same,"Cyclic GMP levels in regional interstitial microdialysate, SP",cyclic GMP [9]; spleen,16.40* μg/ml
same,"Tests for pyrogenic effects, hypotensive effects, arrhythmia, inotropic effects, bradycardia, tachycardia, hypovolemia, dysoria, and coagulopathy",[10],negative
"CCOC(=O)[C@H](CCCNC(=N)N)NC(=O)c1ccccc1 [BAEE, N-benzoyl-L-arginine ethyl ester, reference compound]",MAP,cyclic GMP [4]; [13],108 ± 8*+ mm Hg
same,cGMP,cyclic GMP [4]; [13],24.44 ± 1.05*+ μg/ml
same,CO,[5]; BAEE 400 μg/kg/min during oxyHb-HD,2376 ± 233 mL/min
same,reversal of cardiac output to the high levels of Ab-HD alone,[11],not reversed
"COC(=O)[C@@H](N)CCCNC(=N)N[N+](=O)[O-] [L-NAME, L-nitro arginine methyl ester]",CO,nitric oxide synthase,2413 ± 1721+ ml/min
same,MAP,nitric oxide synthase,152 ± 8*+ mm Hg
same,cGMP,nitric oxide synthase,17.38 ± 0.98*+ μg/ml
